Series [1] relates to C57BL/6 mice. Description: Protection from LPS/galactosamine-induced lethal liver injury. The format is in vivo, mouse. Particulars: i.p. pretreatment (500 nmol Cmpd, 40 μg MPLA), next day LPS 0.2 μg + galactosamine 12 mg per animal; survivors/treated. The protocol: FIGS. 11A-11B depict that administration of Cmpd 42 and Cmpd 33 protects hosts from LPS-induced lethal liver injury. FIG. 11A: Schematic showing that C57BL/6 mice were intraperitoneously injected with 500 nmol Cmpd. 42 (n=11) or Cmpd 33 (n=11). 40 μg MPLA (n=9) and vehicle (n=9) were used as positive and negative controls, respectively. Next day, mice were challenged with LPS (0.2 μg/animal) and galactosamine (12 mg/animal). FIG. 11B: Histogram showing results of sera collected 1.5 h post challenge and measured for TNFα. *:p<0.05 compared to vehicle treated mice.
Lipopolysaccharide (LPS), a TLR4 ligand, causes severe lethal liver injury when administered with galactosamine. Pretreatment of mice with MPLA is known to improve the survival in this model. To study whether Cmpd 42 and Cmpd 33 are able to act as immunomodulatory agents similar to MPLA, the mice were treated with Cmpd 42 or Cmpd 33 and challenged with LPS/galatosamine the next day, as depicted in FIG. 11A. Over 80% of Cmpd 42 and 100% of Cmpd 33-treated mice survived.

Series [2] has as its system C57BL/6 mice.

Like-named read-outs stand apart in the source and are kept apart here.

Take “monophosphoryl lipid A [MPLA, reference compound]”: the Survival in series [1] is on record as 8/9; in series [2] (i.p. 500 nmol Cmpd 42, MPL 40 μg or LPS 0.2 μg mixed with galactosamine 12 mg, survivors/treated), 0/5. Besides, in series [2] (with galactosamine 12 mg/animal, up to 15 μmol/animal Cmpd 33, 1 μmol/animal Cmpd 42, 10 μg/animal MPLA), the “Serum TNFα levels” value was “induced detectable TNFα”.

(Values after patent publication US9505768B2, “Compositions and methods for modulating TLR4” (The Regents of the University of California, priority 2012, dated 2016).)
